From patent US20080207572A1, “Use of Dual C-Kit/Fgfr3 Inhibitors for Treating Multiple Myeloma” (AB Science, priority 2005, published 2008)

Columns and labels:
Type in all cases: cell-based
[1] = test system: cell line (Ba/F3-derived) expressing JMΔ27; test: Apoptosis induction in Ba/F3-derived cell line
Protocol: (§1) In this experiment, after 48 hours, 0.1 μM AB1010 induced apoptosis of approximately 50% versus control cells in which 10% of cells were apoptotic. In addition, a separate cell line (Ba/F3-derived) expressing JMΔ27 was tested and apoptosis was induced to a level of approximately 85%.

[2] = test system: t(4; 14) FGFR3+ human plasma cell line LP1; test: FGF-enhanced proliferation (3H-Thymidine uptake); settings: in the presence of FGF; FIG. 2
Excerpt: In the presence of FGF, the proliferation of the t(4; 14) FGFR3+ human plasma cell line is enhanced, as measured by 3H-Thymidine uptake.

[3] = test system: human mast cell line expressing the JMΔ27 mutated c-kit; test: Apoptosis induction in mast cell line; settings: 0.1 μM, after 48 hours; control cells 10% apoptotic
Protocol: as §1

**Q.** Which results are given for Cc1ccc(NC(=O)c2ccc(CN3CCN(C)CC3)cc2)cc1Nc1nc(-c2cccnc2)cs1 [AB1010]?
**A.** apoptosis induced [1]: approximately 85%; inhibition of FGF-enhanced proliferation [2]: inhibit the FGF-enhanced proliferation; apoptosis induced [3]: approximately 50%
